Laboratory results from US12060349B2, “Glucosylceramide synthase inhibitors” (Genzyme Corporation, priority 2012, dated 2024).
Read-outs that look alike come from different tables or passages of the source.

Key:
B16 mouse melanoma cells = test: cell viability in the B16 cell-based assay (Viability, B16 IC50); conditions: Mus musculus
How it was run: (§1)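 Both lines undergo the phenotypic GM3 assay, and viability is recorded from that same cell-based run.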

C32 human melanoma cells = test: cell viability in the C32 cell-based assay (Viability, C32 IC50); conditions: concentration causing 50% cell death, values greater than 10 represent a lack of cell death
How it was run: as §1

[1] = target: T1, glucosylceramide synthase (Homo sapiens, UniProt Q16739); test: microsomal assay measuring conversion of ceramide to glucosylceramide by HPLC (GCS IC50); type: biochemical; conditions: concentration causing 50% inhibition of glucosylceramide synthase activity
T1 construct: Microsomes were isolated from A375 human melanoma cells; endogenous in cells; host or cells: A375 human melanoma cells (microsomal fraction, 100,000 g pellet)
T1 sequence (Q16739 1-394): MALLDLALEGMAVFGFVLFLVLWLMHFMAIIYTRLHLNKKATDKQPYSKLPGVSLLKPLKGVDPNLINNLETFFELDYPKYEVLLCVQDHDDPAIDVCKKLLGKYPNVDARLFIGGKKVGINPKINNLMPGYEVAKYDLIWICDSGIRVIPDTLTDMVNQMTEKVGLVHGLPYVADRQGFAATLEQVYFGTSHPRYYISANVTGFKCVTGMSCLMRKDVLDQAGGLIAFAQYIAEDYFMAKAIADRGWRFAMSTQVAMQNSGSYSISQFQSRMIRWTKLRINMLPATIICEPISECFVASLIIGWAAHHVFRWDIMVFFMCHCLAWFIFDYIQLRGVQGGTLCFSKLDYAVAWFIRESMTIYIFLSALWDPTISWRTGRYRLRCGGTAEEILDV
How it was run: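 Microsomal preparation assayed for glucosylceramide synthase by direct HPLC measurement of ceramide conversion to glucosylceramide. GCS IC50 is the compound concentration giving 50% inhibition of enzyme activity.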

[2] = system: GM3 expression on the cell surface, B16 mouse melanoma cells; test: cell based phenotypic assay, cell surface GM3 by antibody mediated immunofluorescence, B16 (GM3 B16 IC50); conditions: 50% inhibition of GM3 expression on the cell surface
How it was run: (§2)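 Two melanoma lines, mouse B16 and human C32, were treated and surface GM3 quantified by antibody immunofluorescence for IC50. A parallel viability readout gives the concentration killing 50% of cells, with values over 10 indicating no cell death.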

[3] = system: GM3 expression on the cell surface, C32 human melanoma cells; test: cell based phenotypic assay, cell surface GM3 by antibody mediated immunofluorescence, C32 (GM3 C32 IC50); conditions: 50% inhibition of GM3 expression on the cell surface
How it was run: as §2

[4] = B16, B16 cells, concentration causing 50% cell death, values greater than 10 represent a lack of cell death, read-out: Viability, B16 IC50
[5] = Homo sapiens, C32, C32 cells, read-out: Viability, C32 IC50
[6] = Mus musculus, B16 mouse melanoma cells, read-out: GM3 B16 IC50
[7] = Homo sapiens, C32 human melanoma cells, read-out: GM3 C32 IC50
[8] = B16, read-out: Viability, B16 IC50
[9] = Homo sapiens, C32, read-out: Viability, C32 IC50, C32 cells
[10] = Mus musculus, read-out: GM3 B16 IC50, B16 mouse melanoma cells
[11] = Homo sapiens, read-out: GM3 C32 IC50, C32 human melanoma cells

| Compound | IC50 (B16 mouse melanoma cells; [4]) [nM] | IC50 (C32 human melanoma cells; [5]) [nM] | IC50 [1] [nM] | IC50 [2, 6] [nM] | IC50 [3, 7] [nM] | further results |
| --- | --- | --- | --- | --- | --- | --- |
| CC(C)(NC(=O)NC1(C)CCN2CCC1CC2)c1ccc(-c2ccc(C(=O)N3CCOCC3)cc2)cc1 (centres unmarked) [Example 268, 1-(4-Methyl-1-azabicyclo[3.2.2]nonan-4-yl)-3-(2-(4′-(morpholine-4-carbonyl)biphenyl-4-yl)propan-2-yl)urea] | ≥ 10000 | 1000 | 166 | 648 | 31.5 | – |
| CC(C)(NC(=O)N1CCN2CCC1CC2)c1ccc(-c2ccc(C(=O)N3CCOCC3)cc2)cc1 [Example 269, N-(2-(4′-(Morpholine-4-carbonyl)biphenyl-4-yl)propan-2-yl)-1,4-diazabicyclo[3.2.2]nonane-4-carboxamide] | ≥ 10000 | ≥ 10000 | 23000 | 2160 | 518 | – |
| CC(C)(NC(=O)OC1CN2CCC1CC2)c1ccc(-c2ccc(C(=O)N3CCC(F)(F)CC3)cc2)cc1 (centres unmarked) [Example 270, Quinuclidin-3-yl 2-(4′-(4,4-difluoropiperidine-1-carbonyl)biphenyl-4-yl)propan-2-ylcarbamate] | – | – | 25 | – | – | IC50 (B16 mouse melanoma cells; [8]): ≥ 10000 nM; IC50 (C32 human melanoma cells; [9]): 1000 nM; IC50 [2, 10]: 67 nM; IC50 [3, 11]: 3.56 nM |
| CC(C)(NC(=O)OC1CCN2CCC1CC2)c1ccc(-c2ccc(C(=O)N3CCC(F)(F)CC3)cc2)cc1 (centres unmarked) [Example 271, 1-Azabicyclo[3.2.2]nonan-4-yl 2-(4′-(4,4-difluoropiperidine-1-carbonyl)biphenyl-4-yl)propan-2-ylcarbamate] | ≥ 10000 | 316 | 9.42 | 60.7 | 2.64 | – |
| CCC1(NC(=O)NC(C)(C)c2ccc(-c3ccc(C(=O)N4CCC(F)(F)CC4)cc3)cc2)CN2CCC1CC2 (centres unmarked) [Example 272, 1-(2-(4′-(4,4-Difluoropiperidine-1-carbonyl)biphenyl-4-yl)propan-2-yl)-3-(3-ethylquinuclidin-3-yl)urea] | ≥ 10000 | 1000 | 16.4 | 24.9 | 2.15 | – |
| CC(C)(NC(=O)OC1CN2CCC1CC2)c1ccc(-c2ccc(C(=O)N3CC(F)(F)C3)cc2)cc1 (centres unmarked) [Example 273, Quinuclidin-3-yl 2-(4′-(3,3-difluoroazetidine-1-carbonyl)biphenyl-4-yl)propan-2-ylcarbamate] | – | – | 108 | – | – | IC50 (B16 mouse melanoma cells; [8]): ≥ 10000 nM; IC50 (C32 human melanoma cells; [9]): 3160 nM; IC50 [2, 10]: 74 nM; IC50 [3, 11]: 10.6 nM |
| CC(C)(NC(=O)OC1CCN2CCC1CC2)c1ccc(-c2ccc(C(=O)N3CC(F)(F)C3)cc2)cc1 (centres unmarked) [Example 274, 1-Aza-bicyclo[3.2.2]nonan-4-yl 2-(4′-(3,3-difluoroazetidine-1-carbonyl)biphenyl-4-yl)propan-2-ylcarbamate] | ≥ 10000 | 1000 | 30.4 | 67.3 | 4.78 | – |
| CCC1(NC(=O)NC(C)(C)c2ccc(-c3ccc(C(=O)N4CC(F)(F)C4)cc3)cc2)CN2CCC1CC2 (centres unmarked) [Example 275, 1-(2-(4′-(3,3-Difluoroazetidine-1-carbonyl)biphenyl-4-yl)propan-2-yl)-3-(3-ethylquinuclidin-3-yl)urea] | ≥ 10000 | 1000 | 75.6 | 55.4 | 2.92 | – |
| CC(C)(NC(=O)NC1(C)CCN2CCC1CC2)c1cccc(Oc2cccc(C(=O)N3CCOCC3)c2)c1 (centres unmarked) [Example 276, 1-(4-Methyl-1-azabicyclo[3.2.2]nonan-4-yl)-3-(2-(3-(3-(morpholine-4-carbonyl)phenoxy)phenyl)propan-2-yl)urea] | ≥ 10000 | 3160 | 20 | 1530 | 29.6 | – |
| CC(C)(NC(=O)NC1(C)CN2CCC1CC2)c1cccc(Oc2cccc(C(=O)N3CCOCC3)c2)c1 (centres unmarked) [Example 277, 1-(3-Methylquinuclidin-3-yl)-3-(2-(3-(3-(morpholine-4-carbonyl)phenoxy)phenyl)propan-2-yl)urea] | ≥ 10000 | ≥ 10000 | 91.7 | 2030 | 80.1 | – |
| CC(C)(NC(=O)OC1CCN2CCC1CC2)c1cccc(Oc2cccc(C(=O)N3CCOCC3)c2)c1 (centres unmarked) [Example 278, 1-Aza-bicyclo[3.2.2]nonan-4-yl 2-(3-(3-(morpholine-4-carbonyl)phenoxy)phenyl)propan-2-ylcarbamate] | ≥ 10000 | ≥ 10000 | 593 | 1440 | 53 | – |
| CC(C)(NC(=O)OC1CN2CCC1CC2)c1cccc(Oc2cccc(C(=O)N3CCOCC3)c2)c1 (centres unmarked) [Example 279, Quinuclidin-3-yl 2-(3-(3-(morpholine-4-carbonyl)phenoxy)phenyl)propan-2-ylcarbamate] | – | – | 4330 | – | – | IC50 (B16 mouse melanoma cells; [8]): ≥ 10000 nM; IC50 (C32 human melanoma cells; [9]): 3160 nM; IC50 [2, 10]: 3920 nM; IC50 [3, 11]: 217 nM |
| CC(C)(NC(=O)NC1(C)CN2CCC1CC2)c1ccc(Oc2ccc(C(=O)N3CCOCC3)cc2)cc1 (centres unmarked) [Example 280, 1-(3-Methylquinuclidin-3-yl)-3-(2-(4-(4-(morpholine-4-carbonyl)phenoxy)phenyl)propan-2-yl)urea] | ≥ 10000 | 1000 | 164 | 1940 | 49.1 | – |
| CC(C)(NC(=O)NC1(C)CCN2CCC1CC2)c1ccc(Oc2ccc(C(=O)N3CCOCC3)cc2)cc1 (centres unmarked) [Example 281, 1-(4-Methyl-1-azabicyclo[3.2.2]nonan-4-yl)-3-(2-(4-(4-(morpholine-4-carbonyl)phenoxy)phenyl)propan-2-yl)urea] | ≥ 10000 | 1000 | 31.6 | 440 | 7.79 | – |
| CC(C)(NC(=O)OC1CCN2CCC1CC2)c1ccc(Oc2ccc(C(=O)N3CCOCC3)cc2)cc1 (centres unmarked) [Example 282, 1-Azabicyclo[3.2.2]nonan-4-yl 2-(4-(4-(morpholine-4-carbonyl)phenoxy)phenyl)propan-2-ylcarbamate] | ≥ 10000 | 3160 | 479 | 660 | 40.4 | – |
| CN(C)C(=O)c1ccc(Oc2ccc(C(C)(C)NC(=O)OC3CN4CCC3CC4)cc2)cc1 (centres unmarked) [Example 283, Quinuclidin-3-yl 2-(4-(4-(dimethylcarbamoyl)phenoxy)phenyl)propan-2-ylcarbamate] | – | – | 606 | – | – | IC50 (B16 mouse melanoma cells; [8]): ≥ 10000 nM; IC50 (C32 human melanoma cells; read-out: Viability, C32 IC50, C32 cells): ≥ 10000 nM; IC50 ([2]; read-out: GM3 B16 IC50, B16 mouse melanoma cells): 1030 nM; IC50 ([3]; read-out: GM3 C32 IC50, C32 human melanoma cells): 114 nM |
| CN(C)C(=O)c1ccc(Oc2ccc(C(C)(C)NC(=O)NC3(C)CN4CCC3CC4)cc2)cc1 (centres unmarked) [Example 284, N,N-Dimethyl-4-(4-(2-(3-(3-methylquinuclidin-3-yl)ureido)propan-2-yl)phenoxy)benzamide] | ≥ 10000 | ≥ 10000 | 201 | 3780 | 60.7 | – |
| CN(C)C(=O)c1ccc(Oc2ccc(C(C)(C)NC(=O)NC3(C)CCN4CCC3CC4)cc2)cc1 (centres unmarked) [Example 285, N,N-Dimethyl-4-(4-(2-(3-(4-methyl-1-azabicyclo[3.2.2]nonan-4-yl)ureido)propan-2-yl)phenoxy)benzamide] | ≥ 10000 | – | 16.3 | – | – | IC50 (C32 human melanoma cells; C32 cells, read-out: Viability, C32 IC50): 1000 nM; IC50 ([2]; B16 mouse melanoma cells, read-out: GM3 B16 IC50): 725 nM; IC50 ([3]; C32 human melanoma cells, read-out: GM3 C32 IC50): 6.48 nM |
| CN(C)C(=O)c1ccc(Oc2ccc(C(C)(C)NC(=O)OC3CCN4CCC3CC4)cc2)cc1 (centres unmarked) [Example 286, 1-Azabicyclo[3.2.2]nonan-4-yl 2-(4-(4-(dimethylcarbamoyl)phenoxy)phenyl)propan-2-ylcarbamate] | ≥ 10000 | ≥ 10000 | 437 | 793 | 31.6 | – |
